Measurements reported in US20160031796A1, “ANTIMUSCARINIC COMPOUND HAVING A LOW CONTENT OF IMPURITIES” (Dipharma Francis S.r.l., priority 2014, published 2016).
Counter-ions that a name gives are not always drawn.

Legend:
[1] = Fesoterodine fumarate obtained as disclosed in EP 2 251 318 (prior art); cited from earlier work
[2] = stability studies of Fesoterodine fumarate samples under various temperature and humidity conditions, HPLC analysis; format: physicochemical
Excerpt: Various samples of Fesoterodine fumarate salt of formula (I) have been taken from a batch of product, obtained using the process of the present invention, having a HPLC purity exceeding 99.8% and a content of the impurities of formulas (II), (III), (IV), (V), (VI) or (VII) of less than 0.10%, calculated as HPLC Area %, and completely free of impurities of formula (VIII) and (IX). Some of the samples taken were also micronized to reduce the particle size, both the samples directly taken from the sample batch and the micronized samples have been subjected to stability studies under various temperature and humidity conditions for up to 90 days.
An example of the conditions used in the stability studies were 40° C. with 75% relative humidity and 25° C. with 60% relative humidity.

CC(C)C(=O)Oc1ccc(CO)cc1[C@H](CCN(C(C)C)C(C)C)c1ccccc1 [Fesoterodine fumarate, (R)-2-(3-diisopropylamino-1-phenylpropyl)-4-(hydroxymethyl)phenol isobutyrate]
impurity of formula (VI) generated over time [1]: > 1%
formation of impurities of formula (VIII) and/or (IX) ([2]; HPLC analysis, any of the conditions used, up to 90 days, e.g. 40° C./75% RH and 25° C./60% RH): has not shown the formation
increase in the content of impurities of formula (VI), (VII), (VIII) or (IX) over time ([2]; after 90 days under various temperature and humidity conditions): did not show any increase
stability of micronized sample on storage ([2]; micronized, maintained for 3 months at 4° C.): completely unaltered
impurities content of formula (VI) and/or (VII) ([2]; stability studies up to 90 days, e.g. 40° C. with 75% relative humidity and 25° C. with 60% relative humidity, batch samples and micronized samples): less than 0.10 % (HPLC Area %)
